Assay [1] concerns the target T1, Vasoactive intestinal polypeptide receptor 1 (Homo sapiens, UniProt P32241).
T1 sequence (P32241 whole entry): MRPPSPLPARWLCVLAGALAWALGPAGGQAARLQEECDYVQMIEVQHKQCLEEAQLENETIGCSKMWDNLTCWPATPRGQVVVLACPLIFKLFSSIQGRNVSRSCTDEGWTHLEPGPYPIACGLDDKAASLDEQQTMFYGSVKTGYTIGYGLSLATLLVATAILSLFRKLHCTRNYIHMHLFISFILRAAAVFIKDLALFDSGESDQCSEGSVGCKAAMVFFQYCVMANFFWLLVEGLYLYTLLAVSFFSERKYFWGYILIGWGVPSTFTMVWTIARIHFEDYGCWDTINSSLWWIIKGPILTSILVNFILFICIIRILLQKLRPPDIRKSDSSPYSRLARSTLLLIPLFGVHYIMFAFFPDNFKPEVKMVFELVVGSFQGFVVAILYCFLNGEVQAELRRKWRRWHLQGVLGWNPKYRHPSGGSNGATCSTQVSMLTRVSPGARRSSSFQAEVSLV
The experiment in a line: Agonist activity at human VIPR1 expressed in CHOK1 cells assessed as intracellular cAMP accumulation after 60 mins by PathHunter assay. The assay is classed as functional, cell-based.

The target of assay [2] is T2, Vasoactive intestinal polypeptide receptor 2 (Homo sapiens, UniProt P41587).
T2 sequence (P41587 whole entry): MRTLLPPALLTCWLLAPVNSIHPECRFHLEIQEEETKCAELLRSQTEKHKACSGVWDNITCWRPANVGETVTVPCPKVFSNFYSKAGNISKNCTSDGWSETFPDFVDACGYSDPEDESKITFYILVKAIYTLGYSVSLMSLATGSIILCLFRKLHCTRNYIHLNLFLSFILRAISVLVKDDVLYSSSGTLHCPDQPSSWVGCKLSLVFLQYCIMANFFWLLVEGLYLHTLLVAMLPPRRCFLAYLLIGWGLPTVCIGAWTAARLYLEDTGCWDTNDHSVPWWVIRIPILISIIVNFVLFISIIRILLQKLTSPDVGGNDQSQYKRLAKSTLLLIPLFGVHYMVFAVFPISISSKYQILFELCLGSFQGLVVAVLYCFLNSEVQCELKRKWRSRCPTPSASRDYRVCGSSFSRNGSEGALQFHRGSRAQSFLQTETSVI
The experiment in a line: Agonist activity at human VIPR2 expressed in CHOK1 cells assessed as intracellular cAMP accumulation after 60 mins by PathHunter assay. Format: functional, cell-based.

pEC50: −log10 of the molar value. Numbered stars: 1 amine (or outer) side, 2 acyl side, 3 side chain; on linkers, the order of the positions; unused ones are H or OH. Square brackets hold non-standard residues; d marks the D form. Peptide text beside a SMILES is read from it. ξ: configuration not given here. X1 = O=C([C@H]1CCC[C@@H]1N[*:1])[*:2]; X2 = O=C([C@H]1CNC[C@@H]1N[*:1])[*:2]; β3hN = NC(=O)C[C@H](N)CC(=O)O; ξβ3hR = N=C(N)NCCCC(N)CC(=O)O; β3hV = CC(C)[C@H](N)CC(=O)O; ξβ3hQ = NC(=O)CCC(N)CC(=O)O; ξβ3hD = NC(CC(=O)O)CC(=O)O; ξβ3hL = CC(C)CC(N)CC(=O)O; ξβ3hK = NCCCCC(N)CC(=O)O; ξβ3hT = CC(O)C(N)CC(=O)O; ξβ3hV = CC(C)C(N)CC(=O)O; βAla = NCCC(=O)O

In the case of `CC(=O)N[C@@H](Cc1cnc[nH]1)C(=O)N[C@H]1CCC[C@@H]1C(=O)N[C@@H](CC(=O)O)C(=O)N[C@@H](C)C(=O)N[C@H](CC(=O)N[C@@H](Cc1ccccc1)C(=O)N[C@H](C(=O)N[C@@H](CCC(=O)O)C(=O)N[C@@H](CC(N)=O)CC(=O)N[C@@H](Cc1ccc(O)cc1)C(=O)N[C@H](C(=O)N[C@@H](CCCCN)C(=O)N[C@@H](CC(C)C)C(=O)N[C@@H](CCCNC(=N)N)C(=O)N[C@@H](CCCCN)C(=O)N[C@@H](CCC(N)=O)C(=O)N[C@@H](CC(C)C)C(=O)N[C@@H](C)C(=O)N[C@@H](C)C(=O)N[C@H]1CNC[C@@H]1C(=O)N[C@@H](CCCCN)C(=O)N[C@@H](Cc1ccc(O)cc1)C(=O)N[C@H]1CCC[C@@H]1C(=O)N[C@@H](CC(N)=O)C(=O)N[C@@H](CC(=O)O)C(=O)N[C@@H](CC(C)C)C(=O)NC(CCCCN)CC(=O)N[C@@H](CCCCN)C(=O)NCC(=O)NCCC(=O)N[C@H](C(=O)O)[C@@H](C)O)[C@@H](C)O)[C@@H](C)O)C(C)C` (stereo partly drawn) (Ac-H[X1]DA[β3hV]FTE[β3hN]YTKLRKQLAA[X2]KY[X1]NDL[ξβ3hK]KG[βAla]T-OH), the results for the pEC50 in assay [1] and in assay [2] were 5.85 and 9.07, respectively.

For `CC(=O)N[C@@H](Cc1cnc[nH]1)C(=O)N[C@H]1CCC[C@@H]1C(=O)N[C@@H](CC(=O)O)C(=O)N[C@@H](C)C(=O)NC(CC(=O)N[C@@H](Cc1ccccc1)C(=O)N[C@H](C(=O)N[C@@H](CCC(=O)O)C(=O)N[C@@H](CC(N)=O)C(=O)N[C@@H](Cc1ccc(O)cc1)C(=O)N[C@H](C(=O)N[C@@H](CCCCN)C(=O)N[C@@H](CC(C)C)C(=O)NC(CCCNC(=N)N)CC(=O)N[C@@H](CCCCN)C(=O)N[C@@H](CCC(N)=O)C(=O)N[C@@H](CC(C)C)C(=O)N[C@@H](C)C(=O)N[C@@H](C)C(=O)N[C@H]1CNC[C@@H]1C(=O)N[C@@H](CCCCN)C(=O)N[C@@H](Cc1ccc(O)cc1)C(=O)N[C@H]1CCC[C@@H]1C(=O)N[C@@H](CC(N)=O)C(=O)N[C@@H](CC(=O)O)C(=O)N[C@@H](CC(C)C)C(=O)NC(CCCCN)CC(=O)N[C@@H](CCCCN)C(=O)NCC(=O)NCCC(=O)N[C@H](C(=O)O)[C@@H](C)O)[C@@H](C)O)[C@@H](C)O)C(C)C` (stereo partly drawn) (Ac-H[X1]DA[ξβ3hV]FTENYTKL[ξβ3hR]KQLAA[X2]KY[X1]NDL[ξβ3hK]KG[βAla]T-OH), the pEC50 is less than 6.00 in assay [1] and 8.86 in assay [2].

Consider `CC(=O)N[C@@H](Cc1cnc[nH]1)C(=O)N[C@H]1CCC[C@@H]1C(=O)N[C@@H](CC(=O)O)C(=O)N[C@@H](C)C(=O)NC(CC(=O)N[C@@H](Cc1ccccc1)C(=O)N[C@H](C(=O)N[C@@H](CCC(=O)O)C(=O)N[C@@H](CC(N)=O)C(=O)N[C@@H](Cc1ccc(O)cc1)C(=O)N[C@H](C(=O)N[C@@H](CCCCN)C(=O)NC(CC(=O)N[C@@H](CCCNC(=N)N)C(=O)N[C@@H](CCCCN)C(=O)N[C@@H](CCC(N)=O)C(=O)N[C@@H](CC(C)C)C(=O)N[C@@H](C)C(=O)N[C@@H](C)C(=O)N[C@H]1CNC[C@@H]1C(=O)N[C@@H](CCCCN)C(=O)N[C@@H](Cc1ccc(O)cc1)C(=O)N[C@H]1CCC[C@@H]1C(=O)N[C@@H](CC(N)=O)C(=O)N[C@@H](CC(=O)O)C(=O)N[C@@H](CC(C)C)C(=O)NC(CCCCN)CC(=O)N[C@@H](CCCCN)C(=O)NCC(=O)NCCC(=O)N[C@H](C(=O)O)[C@@H](C)O)CC(C)C)[C@@H](C)O)[C@@H](C)O)C(C)C` (stereo partly drawn) (Ac-H[X1]DA[ξβ3hV]FTENYTK[ξβ3hL]RKQLAA[X2]KY[X1]NDL[ξβ3hK]KG[βAla]T-OH), for which the pEC50 in assay [1] was 5.85; in assay [2], 8.87.

In the case of `CC(=O)N[C@@H](Cc1cnc[nH]1)C(=O)N[C@H]1CCC[C@@H]1C(=O)N[C@@H](CC(=O)O)C(=O)N[C@@H](C)C(=O)NC(CC(=O)N[C@@H](Cc1ccccc1)C(=O)N[C@H](C(=O)N[C@@H](CCC(=O)O)C(=O)N[C@@H](CC(N)=O)CC(=O)N[C@@H](Cc1ccc(O)cc1)C(=O)N[C@H](C(=O)N[C@@H](CCCCN)C(=O)N[C@@H](CC(C)C)C(=O)N[C@@H](CCCNC(=N)N)C(=O)N[C@@H](CCCCN)C(=O)N[C@@H](CCC(N)=O)C(=O)NC(CC(=O)N[C@@H](C)C(=O)N[C@@H](C)C(=O)N[C@H]1CNC[C@@H]1C(=O)N[C@@H](CCCCN)C(=O)N[C@@H](Cc1ccc(O)cc1)C(=O)N[C@H]1CCC[C@@H]1C(=O)N[C@@H](CC(N)=O)C(=O)N[C@@H](CC(=O)O)C(=O)N[C@@H](CC(C)C)C(=O)NC(CCCCN)CC(=O)N[C@@H](CCCCN)C(=O)NCC(=O)NCCC(=O)N[C@H](C(=O)O)[C@@H](C)O)CC(C)C)[C@@H](C)O)[C@@H](C)O)C(C)C` (stereo partly drawn) (Ac-H[X1]DA[ξβ3hV]FTE[β3hN]YTKLRKQ[ξβ3hL]AA[X2]KY[X1]NDL[ξβ3hK]KG[βAla]T-OH), the values for the pEC50 in assay [1] and in assay [2] were less than 6.00 and 8.90, respectively.

Take `CC(=O)N[C@@H](Cc1cnc[nH]1)C(=O)N[C@H]1CCC[C@@H]1C(=O)N[C@@H](CC(=O)O)C(=O)N[C@@H](C)C(=O)NC(CC(=O)N[C@@H](Cc1ccccc1)C(=O)N[C@H](C(=O)N[C@@H](CCC(=O)O)C(=O)N[C@@H](CC(N)=O)CC(=O)N[C@@H](Cc1ccc(O)cc1)C(=O)N[C@H](C(=O)N[C@@H](CCCCN)C(=O)N[C@@H](CC(C)C)C(=O)N[C@@H](CCCNC(=N)N)C(=O)N[C@@H](CCCCN)C(=O)NC(CCC(N)=O)CC(=O)N[C@@H](CC(C)C)C(=O)N[C@@H](C)C(=O)N[C@@H](C)C(=O)N[C@H]1CNC[C@@H]1C(=O)N[C@@H](CCCCN)C(=O)N[C@@H](Cc1ccc(O)cc1)C(=O)N[C@H]1CCC[C@@H]1C(=O)N[C@@H](CC(N)=O)C(=O)N[C@@H](CC(=O)O)C(=O)N[C@@H](CC(C)C)C(=O)NC(CCCCN)CC(=O)N[C@@H](CCCCN)C(=O)NCC(=O)NCCC(=O)N[C@H](C(=O)O)[C@@H](C)O)[C@@H](C)O)[C@@H](C)O)C(C)C` (stereo partly drawn) (Ac-H[X1]DA[ξβ3hV]FTE[β3hN]YTKLRK[ξβ3hQ]LAA[X2]KY[X1]NDL[ξβ3hK]KG[βAla]T-OH): the results for the pEC50 in assay [1] and in assay [2] were 5.82 and 8.45, respectively.

Take `CC(=O)N[C@@H](Cc1cnc[nH]1)C(=O)N[C@H]1CCC[C@@H]1C(=O)N[C@@H](CC(=O)O)C(=O)N[C@@H](C)C(=O)NC(CC(=O)N[C@@H](Cc1ccccc1)C(=O)N[C@H](C(=O)N[C@@H](CCC(=O)O)C(=O)N[C@@H](CC(N)=O)CC(=O)N[C@@H](Cc1ccc(O)cc1)C(=O)N[C@H](C(=O)N[C@@H](CCCCN)C(=O)N[C@@H](CC(C)C)C(=O)N[C@@H](CCCNC(=N)N)C(=O)NC(CCCCN)CC(=O)N[C@@H](CCC(N)=O)C(=O)N[C@@H](CC(C)C)C(=O)N[C@@H](C)C(=O)N[C@@H](C)C(=O)N[C@H]1CNC[C@@H]1C(=O)N[C@@H](CCCCN)C(=O)N[C@@H](Cc1ccc(O)cc1)C(=O)N[C@H]1CCC[C@@H]1C(=O)N[C@@H](CC(N)=O)C(=O)N[C@@H](CC(=O)O)C(=O)N[C@@H](CC(C)C)C(=O)NC(CCCCN)CC(=O)N[C@@H](CCCCN)C(=O)NCC(=O)NCCC(=O)N[C@H](C(=O)O)[C@@H](C)O)[C@@H](C)O)[C@@H](C)O)C(C)C` (stereo partly drawn) (Ac-H[X1]DA[ξβ3hV]FTE[β3hN]YTKLR[ξβ3hK]QLAA[X2]KY[X1]NDL[ξβ3hK]KG[βAla]T-OH): the pEC50 in assay [1] was 6.53; in assay [2], 8.90.

As for `CC[C@H](C)[C@H](NC(=O)[C@H](C)NC(=O)[C@H](CC(N)=O)NC(=O)CC(CC(C)C)NC(=O)[C@H](Cc1ccc(O)cc1)NC(=O)[C@H](CCCCN)NC(=O)[C@H](CCCCN)NC(=O)CC(NC(=O)[C@H](C)NC(=O)[C@H](CC(C)C)NC(=O)[C@H](CCC(N)=O)NC(=O)CC(CCCCN)NC(=O)[C@H](CCCNC(=N)N)NC(=O)[C@H](CC(C)C)NC(=O)[C@H](CCCNC(=N)N)NC(=O)CC(NC(=O)[C@H](Cc1ccc(O)cc1)NC(=O)[C@H](CC(N)=O)NC(=O)[C@H](CC(=O)O)NC(=O)CC(NC(=O)[C@H](Cc1ccccc1)NC(=O)[C@@H](NC(=O)[C@H](C)NC(=O)CC(CC(=O)O)NC(=O)[C@H](CO)NC(=O)[C@@H](N)Cc1cnc[nH]1)C(C)C)C(C)O)C(C)O)C(C)C)C(=O)NC(CC(=O)N[C@@H](CC(N)=O)C(=O)O)CC(C)C` (stereo partly drawn) (H-HS[ξβ3hD]AVF[ξβ3hT]DNY[ξβ3hT]RLR[ξβ3hK]QLA[ξβ3hV]KKY[ξβ3hL]NAI[ξβ3hL]N-OH), the pEC50 in assay [1] and in assay [2] was less than 6.00 in each case.

As to `CC[C@H](C)[C@H](NC(=O)[C@H](C)NC(=O)[C@H](CC(N)=O)NC(=O)CC(CC(C)C)NC(=O)[C@H](Cc1ccc(O)cc1)NC(=O)[C@H](CCCCN)NC(=O)[C@H](CCCCN)NC(=O)CC(NC(=O)[C@H](C)NC(=O)[C@H](CC(C)C)NC(=O)[C@H](CCC(N)=O)NC(=O)CC(CCCCN)NC(=O)[C@H](CCCNC(=N)N)NC(=O)[C@H](CC(C)C)NC(=O)[C@H](CCCNC(=N)N)NC(=O)CC(NC(=O)[C@H](Cc1ccc(O)cc1)NC(=O)[C@H](CC(N)=O)NC(=O)[C@H](CC(=O)O)NC(=O)[C@@H](NC(=O)[C@H](Cc1ccccc1)NC(=O)[C@@H](NC(=O)[C@H](C)NC(=O)[C@H](CC(=O)O)NC(=O)[C@H]1CCC[C@@H]1NC(=O)[C@@H](N)Cc1cnc[nH]1)C(C)C)[C@@H](C)O)C(C)O)C(C)C)C(=O)NC(CC(=O)N[C@@H](CC(N)=O)C(=O)O)CC(C)C` (stereo partly drawn) (H-H[X1]DAVFTDNY[ξβ3hT]RLR[ξβ3hK]QLA[ξβ3hV]KKY[ξβ3hL]NAI[ξβ3hL]N-OH), the pEC50 in assay [1] was 8.25; in assay [2], 5.31.
